The test has as its target Mitogen-activated protein kinase 1 (Homo sapiens, UniProt P28482). The test is described as follows: Assay 1.
Mitogen-activated protein kinase 1, sequence (P28482 whole entry): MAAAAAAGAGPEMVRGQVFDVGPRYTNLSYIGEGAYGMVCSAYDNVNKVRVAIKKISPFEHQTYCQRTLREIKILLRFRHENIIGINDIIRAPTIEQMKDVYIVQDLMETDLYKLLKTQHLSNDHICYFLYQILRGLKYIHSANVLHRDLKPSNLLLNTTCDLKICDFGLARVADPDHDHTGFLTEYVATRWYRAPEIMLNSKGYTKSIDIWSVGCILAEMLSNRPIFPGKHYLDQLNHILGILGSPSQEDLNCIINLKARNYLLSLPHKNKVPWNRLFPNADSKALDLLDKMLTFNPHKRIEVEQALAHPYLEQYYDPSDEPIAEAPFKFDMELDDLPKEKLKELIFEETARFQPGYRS
As to `CC[C@@H](COC(=O)C(C)(C)C)Nc1ncc(C)c(-c2c[nH]c(C(=O)N[C@H](CO)c3cccc(Cl)c3)c2)n1` [erk000702], the Ki was determined as 0.055 µM. Next, `CCOC(=O)N1CCC(Nc2ncc(Cl)c(-c3c[nH]c(C(=O)N[C@H](CO)c4cccc(Cl)c4)c3)n2)CC1` [erk000703]: 0.007 µM; `Cc1cnc(N[C@H]2CCOC2)nc1-c1cc(C(=O)N[C@H](CO)c2ccccc2)n(C)c1` [erk000704]: 0.003 µM. Next, `CCONc1ncc(Cl)c(-c2c[nH]c(C(=O)N[C@H](CO)c3cccc(C)c3)c2)n1` [erk000705]: 0.004 µM. Next, `Cc1cnc(N[C@@H](C)CO)nc1-c1cc(C(=O)N[C@H](CO)c2ccccc2)n(C)c1` [erk000706]: 0.006 µM; `CC(C)Nc1ncc(Cl)c(-c2c[nH]c(C(=O)N(C)[C@H](CO)c3ccccc3)c2)n1` [erk000708]: 0.006 µM; `CC[C@@H](CO)Nc1ncc(C)c(-c2c[nH]c(C(=O)N(C)[C@H](CO)c3cccc(Cl)c3)c2)n1` [erk000709]: 0.002 µM. `CC[C@@H](CO)Nc1ncc(Cl)c(-c2cc(C(=O)N[C@H](CO)c3ccccc3)n(C)c2)n1` [erk000710] had a Ki of 0.004 µM. Next, `CC[C@@H](CO)Nc1ncc(Cl)c(N2CCN(C(=O)N[C@H](CO)c3cccc(Cl)c3)CC2)n1` [erk000711]: 0.038 µM; `Fc1cccc(-c2cnoc2-c2c[nH]c3ncc(-c4ccncc4)cc23)c1F` [erk000712]: 0.191 µM. Take `CC[C@@H](COC(=O)CCC(=O)O)Nc1ncc(C)c(-c2c[nH]c(C(=O)N[C@H](COC(=O)CCC(=O)O)c3cccc(Cl)c3)c2)n1` [erk000713]: the Ki is 0.117 µM.

Take `CC[C@@H](COC(=O)[C@@H](N)C(C)(C)C)Nc1ncc(C)c(-c2c[nH]c(C(=O)N[C@H](COC(=O)[C@@H](N)C(C)(C)C)c3cccc(Cl)c3)c2)n1` [erk000714]: the inhibition constant Ki was 0.03 µM. Next, `CC[C@@H](COC(=O)[C@@H](NC)C(C)C)Nc1ncc(C)c(-c2c[nH]c(C(=O)N[C@H](COC(=O)[C@@H](NC)C(C)C)c3cccc(Cl)c3)c2)n1` [erk000715]: 1.91 µM. Next, `CC[C@@H](COC(=O)COCCOC)Nc1ncc(C)c(-c2c[nH]c(C(=O)N[C@H](COC(=O)COCCOC)c3cccc(Cl)c3)c2)n1` [erk000716]: 0.427 µM; `CC[C@@H](COC(=O)[C@H](C)N)Nc1ncc(C)c(-c2c[nH]c(C(=O)N[C@H](COC(=O)[C@H](C)N)c3cccc(Cl)c3)c2)n1` [erk000717]: 0.038 µM; `CC[C@@H](COC(=O)CCC(=O)N1CCOCC1)Nc1ncc(C)c(-c2c[nH]c(C(=O)N[C@H](COC(=O)CCC(=O)N3CCOCC3)c3cccc(Cl)c3)c2)n1` [erk000718]: 0.257 µM. Next, `CC[C@@H](COC(=O)[C@H](CC(C)C)NC)Nc1ncc(C)c(-c2c[nH]c(C(=O)N[C@H](COC(=O)[C@H](CC(C)C)NC)c3cccc(Cl)c3)c2)n1` [erk000719]: 0.525 µM; `CC[C@@H](COC(=O)C(C)(C)N)Nc1ncc(C)c(-c2c[nH]c(C(=O)N[C@H](COC(=O)C(C)(C)N)c3cccc(Cl)c3)c2)n1` [erk000720]: 0.2 µM; `CC[C@@H](CO)Nc1ncc(C)c(-c2c[nH]c(C(=O)N[C@H](COP(=O)(O)O)c3cccc(Cl)c3)c2)n1` [erk000721]: 0.004 µM. As for `CC[C@@H](COP(=O)(O)O)Nc1ncc(C)c(-c2c[nH]c(C(=O)N[C@H](CO)c3cccc(Cl)c3)c2)n1` [erk000722], the Ki was determined as 0.417 µM. Next, `C[C@@H]1CCN(C(=O)CC#N)C[C@@H]1N(C)c1nc(Nc2ccc(N3CCOCC3)cc2)nc2[nH]cnc12` [erk000723]: 0.407 µM.

One may read the Ki as a measure of affinity in units of concentration, obtained from inhibition or displacement. Lower therefore signals tighter binding.

Values taken from BindingDB's records for aid1799744 (Csar, 2012).
